Measurements reported in the NIST ThermoML archive (doi:10.1016/j.jct.2014.05.014).
± gives the expanded uncertainty stated by the source.

Assay: cn = amount concentration of the nth substance listed, in mol/dm3
Details: 101.3 kPa, Liquid; for electrical conductivity: Alternating current cell with electrodes; for viscosity: Falling or rolling sphere viscometry; for mass density: Vibrating tube method

## CC(N)C(=O)[O-].[Na+] (stereo not drawn) [sodium DL-alaninate] + O
303.15 K, c1 = 0.498
  electrical conductivity: 2.82 ± 0.06 S/m
  mass density: 1021.4 ± 1.6 kg/m3
303.15 K, c1 = 0.99
  electrical conductivity: 4.45 ± 0.09 S/m
303.15 K, c1 = 1.485
  electrical conductivity: 5.36 ± 0.11 S/m
303.15 K, c1 = 1.983
  electrical conductivity: 5.78 ± 0.12 S/m
303.15 K, c1 = 2.476
  electrical conductivity: 5.77 ± 0.12 S/m
303.15 K, c1 = 3.048
  electrical conductivity: 5.43 ± 0.11 S/m
303.15 K, c1 = 0.478
  viscosity: 0.98 ± 0.021 mPa·s
303.15 K, c1 = 0.994
  viscosity: 1.232 ± 0.027 mPa·s
303.15 K, c1 = 1.495
  viscosity: 1.579 ± 0.036 mPa·s
  mass density: 1069 ± 1.7 kg/m3
303.15 K, c1 = 1.975
  viscosity: 2.011 ± 0.049 mPa·s
  mass density: 1090.8 ± 1.8 kg/m3
303.15 K, c1 = 2.496
  viscosity: 2.683 ± 0.071 mPa·s
303.15 K, c1 = 3.032
  viscosity: 3.708 ± 0.1 mPa·s
303.15 K, c1 = 0.985
  mass density: 1045.4 ± 1.7 kg/m3
303.15 K, c1 = 2.467
  mass density: 1113.1 ± 2 kg/m3
303.15 K, c1 = 3.063
  mass density: 1139.4 ± 2.1 kg/m3
308.15 K, c1 = 0.498
  electrical conductivity: 3.11 ± 0.07 S/m
  mass density: 1019.6 ± 1.6 kg/m3
308.15 K, c1 = 0.99
  electrical conductivity: 4.92 ± 0.1 S/m
308.15 K, c1 = 1.485
  electrical conductivity: 5.94 ± 0.12 S/m
308.15 K, c1 = 1.983
  electrical conductivity: 6.45 ± 0.13 S/m
308.15 K, c1 = 2.476
  electrical conductivity: 6.48 ± 0.13 S/m
308.15 K, c1 = 3.048
  electrical conductivity: 6.17 ± 0.12 S/m
308.15 K, c1 = 0.478
  viscosity: 0.877 ± 0.019 mPa·s
308.15 K, c1 = 0.994
  viscosity: 1.099 ± 0.024 mPa·s
308.15 K, c1 = 1.495
  viscosity: 1.423 ± 0.032 mPa·s
  mass density: 1066.9 ± 1.7 kg/m3
308.15 K, c1 = 1.975
  viscosity: 1.771 ± 0.042 mPa·s
  mass density: 1088.5 ± 1.8 kg/m3
308.15 K, c1 = 2.496
  viscosity: 2.341 ± 0.061 mPa·s
308.15 K, c1 = 3.032
  viscosity: 3.187 ± 0.086 mPa·s
308.15 K, c1 = 0.985
  mass density: 1043.4 ± 1.7 kg/m3
308.15 K, c1 = 2.467
  mass density: 1110.7 ± 2 kg/m3
308.15 K, c1 = 3.063
  mass density: 1136.8 ± 2.1 kg/m3
313.15 K, c1 = 0.498
  electrical conductivity: 3.42 ± 0.07 S/m
  mass density: 1017.7 ± 1.6 kg/m3
313.15 K, c1 = 0.99
  electrical conductivity: 5.41 ± 0.11 S/m
313.15 K, c1 = 1.485
  electrical conductivity: 6.54 ± 0.13 S/m
313.15 K, c1 = 1.983
  electrical conductivity: 7.13 ± 0.14 S/m
313.15 K, c1 = 2.476
  electrical conductivity: 7.22 ± 0.14 S/m
313.15 K, c1 = 3.048
  electrical conductivity: 6.94 ± 0.14 S/m
313.15 K, c1 = 0.478
  viscosity: 0.796 ± 0.017 mPa·s
313.15 K, c1 = 0.994
  viscosity: 0.991 ± 0.022 mPa·s
313.15 K, c1 = 1.495
  viscosity: 1.243 ± 0.028 mPa·s
  mass density: 1064.7 ± 1.7 kg/m3
313.15 K, c1 = 1.975
  viscosity: 1.574 ± 0.038 mPa·s
  mass density: 1086.1 ± 1.8 kg/m3
313.15 K, c1 = 2.496
  viscosity: 2.06 ± 0.053 mPa·s
313.15 K, c1 = 3.032
  viscosity: 2.765 ± 0.073 mPa·s
313.15 K, c1 = 0.985
  mass density: 1041.4 ± 1.7 kg/m3
313.15 K, c1 = 2.467
  mass density: 1108.2 ± 1.9 kg/m3
313.15 K, c1 = 3.063
  mass density: 1134 ± 2.1 kg/m3
318.15 K, c1 = 0.498
  electrical conductivity: 3.72 ± 0.08 S/m
  mass density: 1015.7 ± 1.6 kg/m3
318.15 K, c1 = 0.99
  electrical conductivity: 5.89 ± 0.12 S/m
318.15 K, c1 = 1.485
  electrical conductivity: 7.14 ± 0.15 S/m
318.15 K, c1 = 1.983
  electrical conductivity: 7.82 ± 0.16 S/m
318.15 K, c1 = 2.476
  electrical conductivity: 7.98 ± 0.16 S/m
318.15 K, c1 = 3.048
  electrical conductivity: 7.72 ± 0.16 S/m
318.15 K, c1 = 0.478
  viscosity: 0.721 ± 0.016 mPa·s
318.15 K, c1 = 0.994
  viscosity: 0.895 ± 0.02 mPa·s
318.15 K, c1 = 1.495
  viscosity: 1.122 ± 0.025 mPa·s
  mass density: 1062.3 ± 1.7 kg/m3
318.15 K, c1 = 1.975
  viscosity: 1.405 ± 0.033 mPa·s
  mass density: 1083.7 ± 1.8 kg/m3
318.15 K, c1 = 2.496
  viscosity: 1.821 ± 0.046 mPa·s
318.15 K, c1 = 3.032
  viscosity: 2.426 ± 0.064 mPa·s
318.15 K, c1 = 0.985
  mass density: 1039.3 ± 1.7 kg/m3
318.15 K, c1 = 2.467
  mass density: 1105.5 ± 1.9 kg/m3
318.15 K, c1 = 3.063
  mass density: 1131.3 ± 2.1 kg/m3
323.15 K, c1 = 0.498
  electrical conductivity: 4.04 ± 0.08 S/m
  mass density: 1013.4 ± 1.6 kg/m3
323.15 K, c1 = 0.99
  electrical conductivity: 6.38 ± 0.13 S/m
323.15 K, c1 = 1.485
  electrical conductivity: 7.76 ± 0.16 S/m
323.15 K, c1 = 1.983
  electrical conductivity: 8.52 ± 0.17 S/m
323.15 K, c1 = 2.476
  electrical conductivity: 8.73 ± 0.17 S/m
323.15 K, c1 = 3.048
  electrical conductivity: 8.52 ± 0.17 S/m
323.15 K, c1 = 0.478
  viscosity: 0.661 ± 0.014 mPa·s
323.15 K, c1 = 0.994
  viscosity: 0.817 ± 0.018 mPa·s
323.15 K, c1 = 1.495
  viscosity: 1.014 ± 0.023 mPa·s
  mass density: 1059.8 ± 1.7 kg/m3
323.15 K, c1 = 1.975
  viscosity: 1.268 ± 0.03 mPa·s
  mass density: 1081.1 ± 1.8 kg/m3
323.15 K, c1 = 2.496
  viscosity: 1.629 ± 0.041 mPa·s
323.15 K, c1 = 3.032
  viscosity: 2.146 ± 0.056 mPa·s
323.15 K, c1 = 0.985
  mass density: 1036.9 ± 1.7 kg/m3
323.15 K, c1 = 2.467
  mass density: 1102.8 ± 1.9 kg/m3
323.15 K, c1 = 3.063
  mass density: 1128.4 ± 2.1 kg/m3
328.15 K, c1 = 0.498
  electrical conductivity: 4.37 ± 0.09 S/m
  mass density: 1011.1 ± 1.6 kg/m3
328.15 K, c1 = 0.99
  electrical conductivity: 6.87 ± 0.14 S/m
328.15 K, c1 = 1.485
  electrical conductivity: 8.38 ± 0.17 S/m
328.15 K, c1 = 1.983
  electrical conductivity: 9.22 ± 0.19 S/m
328.15 K, c1 = 2.476
  electrical conductivity: 9.5 ± 0.19 S/m
328.15 K, c1 = 3.048
  electrical conductivity: 9.33 ± 0.19 S/m
328.15 K, c1 = 0.478
  viscosity: 0.606 ± 0.013 mPa·s
328.15 K, c1 = 0.994
  viscosity: 0.75 ± 0.016 mPa·s
328.15 K, c1 = 1.495
  viscosity: 0.924 ± 0.021 mPa·s
  mass density: 1057.3 ± 1.7 kg/m3
328.15 K, c1 = 1.975
  viscosity: 1.148 ± 0.027 mPa·s
  mass density: 1078.4 ± 1.8 kg/m3
328.15 K, c1 = 2.496
  viscosity: 1.467 ± 0.037 mPa·s
328.15 K, c1 = 3.032
  viscosity: 1.912 ± 0.049 mPa·s
328.15 K, c1 = 0.985
  mass density: 1034.5 ± 1.7 kg/m3
328.15 K, c1 = 2.467
  mass density: 1100.2 ± 1.9 kg/m3
328.15 K, c1 = 3.063
  mass density: 1125.4 ± 2.1 kg/m3
333.15 K, c1 = 0.498
  electrical conductivity: 4.68 ± 0.1 S/m
  mass density: 1008.7 ± 1.6 kg/m3
333.15 K, c1 = 0.99
  electrical conductivity: 7.37 ± 0.15 S/m
333.15 K, c1 = 1.485
  electrical conductivity: 8.99 ± 0.18 S/m
333.15 K, c1 = 1.983
  electrical conductivity: 9.93 ± 0.2 S/m
333.15 K, c1 = 2.476
  electrical conductivity: 10.3 ± 0.21 S/m
333.15 K, c1 = 3.048
  electrical conductivity: 10.1 ± 0.2 S/m
333.15 K, c1 = 0.478
  viscosity: 0.559 ± 0.012 mPa·s
333.15 K, c1 = 0.994
  viscosity: 0.687 ± 0.015 mPa·s
333.15 K, c1 = 1.495
  viscosity: 0.847 ± 0.019 mPa·s
  mass density: 1054.6 ± 1.7 kg/m3
333.15 K, c1 = 1.975
  viscosity: 1.047 ± 0.025 mPa·s
  mass density: 1075.7 ± 1.8 kg/m3
333.15 K, c1 = 2.496
  viscosity: 1.326 ± 0.033 mPa·s
333.15 K, c1 = 3.032
  viscosity: 1.718 ± 0.044 mPa·s
333.15 K, c1 = 0.985
  mass density: 1032 ± 1.7 kg/m3
333.15 K, c1 = 2.467
  mass density: 1097.2 ± 1.9 kg/m3
333.15 K, c1 = 3.063
  mass density: 1122.4 ± 2.1 kg/m3
338.15 K, c1 = 0.498
  electrical conductivity: 5.01 ± 0.1 S/m
  mass density: 1006 ± 1.6 kg/m3
338.15 K, c1 = 0.99
  electrical conductivity: 7.87 ± 0.16 S/m
338.15 K, c1 = 1.485
  electrical conductivity: 9.62 ± 0.2 S/m
338.15 K, c1 = 1.983
  electrical conductivity: 10.7 ± 0.21 S/m
338.15 K, c1 = 2.476
  electrical conductivity: 11 ± 0.22 S/m
338.15 K, c1 = 3.048
  electrical conductivity: 11 ± 0.22 S/m
338.15 K, c1 = 0.478
  viscosity: 0.52 ± 0.011 mPa·s
338.15 K, c1 = 0.994
  viscosity: 0.638 ± 0.014 mPa·s
338.15 K, c1 = 1.495
  viscosity: 0.778 ± 0.017 mPa·s
  mass density: 1051.8 ± 1.7 kg/m3
338.15 K, c1 = 1.975
  viscosity: 0.96 ± 0.022 mPa·s
  mass density: 1072.9 ± 1.8 kg/m3
338.15 K, c1 = 2.496
  viscosity: 1.206 ± 0.03 mPa·s
338.15 K, c1 = 3.032
  viscosity: 1.546 ± 0.039 mPa·s
338.15 K, c1 = 0.985
  mass density: 1029.3 ± 1.7 kg/m3
338.15 K, c1 = 2.467
  mass density: 1094.3 ± 1.9 kg/m3
338.15 K, c1 = 3.063
  mass density: 1119.4 ± 2.1 kg/m3
343.15 K, c1 = 0.498
  electrical conductivity: 5.34 ± 0.11 S/m
  mass density: 1003.1 ± 1.6 kg/m3
343.15 K, c1 = 0.99
  electrical conductivity: 8.38 ± 0.17 S/m
343.15 K, c1 = 1.485
  electrical conductivity: 10.2 ± 0.21 S/m
343.15 K, c1 = 1.983
  electrical conductivity: 11.3 ± 0.23 S/m
343.15 K, c1 = 2.476
  electrical conductivity: 11.8 ± 0.24 S/m
343.15 K, c1 = 3.048
  electrical conductivity: 11.8 ± 0.24 S/m
343.15 K, c1 = 0.478
  viscosity: 0.484 ± 0.01 mPa·s
343.15 K, c1 = 0.994
  viscosity: 0.591 ± 0.013 mPa·s
343.15 K, c1 = 1.495
  viscosity: 0.729 ± 0.016 mPa·s
  mass density: 1049 ± 1.7 kg/m3
343.15 K, c1 = 1.975
  viscosity: 0.881 ± 0.02 mPa·s
  mass density: 1069.9 ± 1.8 kg/m3
343.15 K, c1 = 2.496
  viscosity: 1.102 ± 0.027 mPa·s
343.15 K, c1 = 3.032
  viscosity: 1.408 ± 0.035 mPa·s
343.15 K, c1 = 0.985
  mass density: 1026.4 ± 1.7 kg/m3
343.15 K, c1 = 2.467
  mass density: 1091.2 ± 1.9 kg/m3
343.15 K, c1 = 3.063
  mass density: 1116.2 ± 2.1 kg/m3
